Assay results reported in patent US6297354A, “Pentapeptide LHRH antagonists” (Abbott Laboratories, priority 1999, dated 2001).
Where a SMILES comes first, the peptide text is derived from it. [ ]: non-standard residue; d: D form. The star is where a group is joined. Propanoyl(3-(4-F-phenyl)) = O=C(CCc1ccc(F)cc1)*; NH(2-pyrrolidin-1-ylethyl) = C1CCN(CCN*)C1; dBip = N[C@H](Cc1ccc(-c2ccccc2)cc1)C(=O)O; 1Nal = N[C@@H](Cc1cccc2ccccc12)C(=O)O; d1Nal = N[C@H](Cc1cccc2ccccc12)C(=O)O; NMeY = CN[C@@H](Cc1ccc(O)cc1)C(=O)O; Tic = O=C(O)[C@@H]1Cc2ccccc2CN1; NMeL = CN[C@@H](CC(C)C)C(=O)O; Nicotinoyl = O=C(c1cccnc1)*; Sar = CNCC(=O)O

Target: T1, LH release from rat pituitary cells (Rattus norvegicus, UniProt P30969)
T1 sequence (P30969 1-327): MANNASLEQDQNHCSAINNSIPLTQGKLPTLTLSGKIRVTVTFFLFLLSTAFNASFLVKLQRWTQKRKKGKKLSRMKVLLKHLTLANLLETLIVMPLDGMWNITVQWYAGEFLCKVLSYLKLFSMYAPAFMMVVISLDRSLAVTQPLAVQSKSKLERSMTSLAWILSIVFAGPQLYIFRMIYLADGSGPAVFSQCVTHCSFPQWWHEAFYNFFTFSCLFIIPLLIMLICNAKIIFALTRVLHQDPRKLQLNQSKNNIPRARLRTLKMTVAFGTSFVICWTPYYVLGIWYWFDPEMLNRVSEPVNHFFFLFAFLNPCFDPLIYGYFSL
Experiment: in vitro inhibition of LH release from rat pituitary cells (pA2, vs agonist leuprolide)
Type: cell-based
Settings: negative logarithm of antagonist concentration required to shift the response curve produced by agonist leuprolide to two-fold higher concentration
Protocol: Representative compounds of the present invention were evaluated in vitro for inhibition of LH release from rat pituitary cells (pA2). Methods for the assay procedures are described by F. Haviv, et al. J. Med. Chem., 32:2340-2344 (1989). Values of pA2 are the negative logarithms of the concentration of the particular antagonist test compound required to shift the response curve produced by the agonist leuprolide to two-fold higher concentration. Typically values of 6.0 or greater are indicative of good LHRH antagonist potency, with values of 7.0 or greater being preferred. Leuprolide LHRH agonist, disclosed and claimed in U.S. Pat. No. 4,005,063, has the structure 5-oxo-Pro1^1 -His^2 […] -Ser^4 -Tyr^5 -D-Leu^6 -Leu^7 -Arg^8 -Pro^9 -NHEt.

SMILES | LHRH Antagonist Activity (pA2)
CC(C)C[C@H](NC(=O)[C@@H](CCCCNC(=O)c1cccnc1)NC(=O)[C@H](Cc1ccc(O)cc1)N(C)C(=O)[C@H](CO)NC(=O)[C@@H](Cc1cccc2ccccc12)NC(=O)CCc1ccc(F)cc1)C(=O)NCCN1CCCC1 [Example 1, 4-F-Phenylpropionyl-D1Nal-Ser-NMeTyr-DLys(Nic)-Leu-NH--(CH2)2 -(1-pyrrolidine)] ({Propanoyl(3-(4-F-phenyl))}-[d1Nal]S[NMeY][dK](Nicotinoyl)L-{NH(2-pyrrolidin-1-ylethyl)}) | 9.91
CC(C)C[C@H](NC(=O)CNC(=O)[C@H](Cc1ccc(O)cc1)N(C)C(=O)[C@H](CO)NC(=O)[C@@H](Cc1cccc2ccccc12)NC(=O)CCc1ccc(F)cc1)C(=O)NCCN1CCCC1 [Example 2, 4-F-Phenylpropionyl-D1Nal-Ser-NMeTyr-Gly-Leu-NH--(CH2)2 -(1pyrrolidine)] ({Propanoyl(3-(4-F-phenyl))}-[d1Nal]S[NMeY]GL-{NH(2-pyrrolidin-1-ylethyl)}) | 9.14
CC(C)C[C@H](NC(=O)[C@@H](CCCCNC(=O)c1cccnc1)NC(=O)CN(C)C(=O)[C@H](CO)NC(=O)[C@@H](Cc1cccc2ccccc12)NC(=O)CCc1ccc(F)cc1)C(=O)NCCN1CCCC1 [Example 3, 4-F-Phenylpropionyl-D1Nal-Ser-Sar-DLys(Nic)-Leu-NH--(CH2)2 (1-pyrrolidine)] ({Propanoyl(3-(4-F-phenyl))}-[d1Nal]S[Sar][dK](Nicotinoyl)L-{NH(2-pyrrolidin-1-ylethyl)}) | 7.66
CC(C)C[C@H](NC(=O)[C@@H](CCCCNC(=O)c1cccnc1)NC(=O)[C@H](Cc1ccc(O)cc1)N(C)C(=O)CNC(=O)[C@@H](Cc1cccc2ccccc12)NC(=O)CCc1ccc(F)cc1)C(=O)NCCN1CCCC1 [Example 6, 4-F-Phenylpropionyl-D1Nal-Gly-NMeTyr-DLys(Nic)-Leu-NH--(CH2)2 -(1-pyrrolidine)] ({Propanoyl(3-(4-F-phenyl))}-[d1Nal]G[NMeY][dK](Nicotinoyl)L-{NH(2-pyrrolidin-1-ylethyl)}) | 8.90
CC(C)C[C@H](NC(=O)[C@@H](CCCCNC(=O)c1cccnc1)NC(=O)[C@H](Cc1ccc(O)cc1)NC(=O)[C@H](CO)NC(=O)[C@@H](Cc1cccc2ccccc12)NC(=O)CCc1ccc(F)cc1)C(=O)NCCN1CCCC1 [Example 7, 4-F-Phenylpropiopyl-D1Nal-Ser-Tyr-DLys(Nic)-Leu-NH--(CH2)2 -(1-pyrrolidine)] ({Propanoyl(3-(4-F-phenyl))}-[d1Nal]SY[dK](Nicotinoyl)L-{NH(2-pyrrolidin-1-ylethyl)}) | 9.73
CC(C)C[C@@H](C(=O)NCCN1CCCC1)N(C)C(=O)CNC(=O)[C@H](Cc1ccc(O)cc1)N(C)C(=O)[C@H](CO)NC(=O)[C@@H](Cc1cccc2ccccc12)NC(=O)CCc1ccc(F)cc1 [Example 8, 4-F-Phenylpropionyl-D1Nal-Ser-NMeTyr-Gly-NMeLeu-NH--(CH2)2 -(1Pyrrolidine)] ({Propanoyl(3-(4-F-phenyl))}-[d1Nal]S[NMeY]G[NMeL]-{NH(2-pyrrolidin-1-ylethyl)}) | 9.00
CC(C)C[C@@H](C(=O)NCCN1CCCC1)N(C)C(=O)CNC(=O)[C@H](Cc1ccc(O)cc1)N(C)C(=O)CNC(=O)[C@@H](Cc1cccc2ccccc12)NC(=O)CCc1ccc(F)cc1 [Example 9, 4-F-Phenylpropionyl-D1Nal-Gly-NMeTyr-Gly-NMeLeu-NH--(CH2)2 -(1-pyrrolidine)] ({Propanoyl(3-(4-F-phenyl))}-[d1Nal]G[NMeY]G[NMeL]-{NH(2-pyrrolidin-1-ylethyl)}) | 7.72
CC(C)C[C@H](NC(=O)[C@@H](CCCCNC(=O)c1cccnc1)NC(=O)[C@H](Cc1ccc(O)cc1)N(C)C(=O)[C@H](CO)NC(=O)[C@@H](Cc1c[nH]c2ccccc12)NC(=O)CCc1ccc(F)cc1)C(=O)NCCN1CCCC1 [Example 10, 4-F-Phenylpropionyl-DTrp-Ser-NMeTyr-DLys(Nic)-Leu-NH--(CH2)2 -(1-pyrrolidine)] ({Propanoyl(3-(4-F-phenyl))}-[dW]S[NMeY][dK](Nicotinoyl)L-{NH(2-pyrrolidin-1-ylethyl)}) | 8.69
CC(C)C[C@H](NC(=O)[C@@H](CCCCNC(=O)c1cccnc1)NC(=O)[C@H](Cc1ccc(O)cc1)N(C)C(=O)[C@H](CO)NC(=O)[C@@H](Cc1ccc(-c2ccccc2)cc1)NC(=O)CCc1ccc(F)cc1)C(=O)NCCN1CCCC1 [Example 11, 4-F-Phenylpropionyl-DBiphe-Ser-NMeTyr-DLys(Nic)-Leu-NH--(CH2)2-(1-pyrrolidine)] ({Propanoyl(3-(4-F-phenyl))}-[dBip]S[NMeY][dK](Nicotinoyl)L-{NH(2-pyrrolidin-1-ylethyl)}) | 7.62
CC(C)C[C@H](NC(=O)[C@@H](CCCCNC(=O)c1cccnc1)NC(=O)[C@H](Cc1ccc(O)cc1)N(C)C(=O)[C@H](CO)NC(=O)[C@H](Cc1cccc2ccccc12)NC(=O)CCc1ccc(F)cc1)C(=O)NCCN1CCCC1 [Example 14, 4-F-Phenylpropionyl-1Nal-Ser-NMeTyr-DLys(Nic)-Leu-NH--(CH2)2 -(1-pyrrolidine)] ({Propanoyl(3-(4-F-phenyl))}-[1Nal]S[NMeY][dK](Nicotinoyl)L-{NH(2-pyrrolidin-1-ylethyl)}) | 8.68
CC(C)C[C@H](NC(=O)[C@@H](Cc1ccccc1)NC(=O)[C@H](Cc1ccc(O)cc1)N(C)C(=O)[C@H](CO)NC(=O)[C@@H](Cc1c[nH]c2ccccc12)NC(=O)CCc1ccc(F)cc1)C(=O)NCCN1CCCC1 [Example 15, 4-F-Phenylpropionyl-DTrp-Ser-NMeTyr-DPhe-Leu-NH--(CH2)2 -(1-pyrrolidine)] ({Propanoyl(3-(4-F-phenyl))}-[dW]S[NMeY][dF]L-{NH(2-pyrrolidin-1-ylethyl)}) | 8.59
CC(C)C[C@H](NC(=O)[C@@H](CCCCNC(=O)c1cccnc1)NC(=O)[C@H](Cc1ccc(O)cc1)N(C)C(=O)[C@@H]1CCCN1C(=O)[C@@H](Cc1cccc2ccccc12)NC(=O)CCc1ccc(F)cc1)C(=O)NCCN1CCCC1 [Example 16, 4-F-Phenylpropionyl-D1Nal-Pro-NMeTyr-DLys(Nic)-Leu-NH--(CH2)2 -(1-Pyrrolidine)] ({Propanoyl(3-(4-F-phenyl))}-[d1Nal]P[NMeY][dK](Nicotinoyl)L-{NH(2-pyrrolidin-1-ylethyl)}) | 8.71
CC(C)C[C@H](NC(=O)[C@@H](CCCCNC(=O)c1cccnc1)NC(=O)[C@@H]1Cc2ccccc2CN1C(=O)[C@H](CO)NC(=O)[C@@H](Cc1cccc2ccccc12)NC(=O)CCc1ccc(F)cc1)C(=O)NCCN1CCCC1 [Example 17, 4-F-Phenylpropionyl-D1Nal-Ser-Tic-DLys(Nic)-Leu-NH--(CH2)2 -( 1-pyrrolidine)] ({Propanoyl(3-(4-F-phenyl))}-[d1Nal]S[Tic][dK](Nicotinoyl)L-{NH(2-pyrrolidin-1-ylethyl)}) | 9.32
CC(C)C[C@H](NC(=O)[C@@H](CCCCNC(=O)c1cccnc1)NC(=O)[C@H](Cc1ccc(O)cc1)N1CC[C@H](NC(=O)[C@@H](Cc2cccc3ccccc23)NC(=O)CCc2ccc(F)cc2)C1=O)C(=O)NCCN1CCCC1 [Example 19, 4-F-Phenylpropionyl-D1Nal-6,7[2-(S-3-amino-2-oxo-pyrrolidin-1-yl)-S-2-(para-hydroxyl)phenylacetyl]-DLys(Nic)-Leu-NH--(CH2)2-(1-pyrrolidine)] | 7.89
